The source of these data is US20220304352A1, “TASTE-MODIFYING COMPOUNDS AND USES THEREOF” (Firmenich SA, priority 2019, published 2022).

Assay type in all cases: in vivo
For assay [1], the system named is trained panelists. Kind of assay: Sensory evaluation of umami in 0.05% MSG base (trained panel, scale -5 to 5). The text has this:
(§1) A panel consisting of 25 trained panelists evaluated samples at 5, 10 or 20 ppm for taste properties (salt and/or umami, or KCl taste) on a scale of −5 to 5 (−5 denoted strong masking effect and 5 denoted strong enhancing effect, 0 being the intensity of a reference water solution containing 0.25% NaCl or 0.25% KCl or 0.05% MSG or 1.5% chicken broth base). A panel consisted of 25 trained panelists evaluated samples at 5 ppm for taste properties (salt and/or umami) on a scale of −5 to 5 (−5 denoted strong masking effect and 5 denoted strong enhancing effect, 0 being the intensity of a reference water solution containing 0.25% NaCl or 0.05% MSG or 1.5% chicken broth base). • 1) Sensory Evaluation

Assay [2] relates to trained panelists. Kind of assay: Sensory evaluation of saltiness and KCl taste in 0.25% KCl base (trained panel, scale -5 to 5). Conditions: 0.25% KCl base, 20 ppm. The text has this: A panel consisting of 25 trained panelists evaluated samples at 5, 10 or 20 ppm for taste properties (salt and/or umami, or KCl taste) on a scale of −5 to 5 (−5 denoted strong masking effect and 5 denoted strong enhancing effect, 0 being the intensity of a reference water solution containing 0.25% NaCl or 0.25% KCl or 0.05% MSG or 1.5% chicken broth base).

Assay [3] deals with trained panelists. The assay can be described thus: Sensory evaluation of saltiness in 0.25% NaCl base (trained panel, scale -5 to 5).
Excerpt: as §1

The structures appear in SMILES notation.

For the compound `O=C(/C=C/C=C/c1ccc2c(c1)OCO2)NCCO` [Compound V], the umami enhancement result in the assay on trained panelists [1] (20 ppm, with nose-clip) is reported as “enhanced umami”; in the assay with trained panelists [1] (20 ppm, without nose-clip), “enhanced umami”. For the same compound, the KCl taste masking entry in the assay with trained panelists [2] (with nose-clip) and in the assay with trained panelists [2] (without nose-clip) was “significantly masked KCl taste” each time. The saltiness enhancement result in the assay on trained panelists [2] (with nose-clip) and with trained panelists [2] (without nose-clip) was “enhanced saltiness” each time.

Turning to `N=C(N)NCCCC(NC(=O)/C=C/c1ccccc1)C(=O)O` (stereo not drawn) [Compound VI], the umami enhancement result in the assay with trained panelists [1] (5 ppm, without nose-clip) is given as “significantly enhanced umami intensity”; with trained panelists [1] (10 ppm, with nose-clip), “enhanced”; in the assay on trained panelists [1] (10 ppm, without nose-clip) it was “enhanced”. Further, the saltiness enhancement entry was “significantly enhanced saltiness intensity” in the assay on trained panelists [3] (5 ppm, with nose-clip); “enhanced saltiness” in the assay on trained panelists [3] (10 ppm, with nose-clip); “enhanced saltiness” with trained panelists [3] (10 ppm, without nose-clip).

On to `O=C(/C=C/c1ccccc1)NCCO` [Compound IV], for which the umami enhancement result in the assay with trained panelists [1] (10 ppm, with nose-clip) is reported as “enhanced umami”; with trained panelists [1] (10 ppm, without nose-clip), “enhanced umami”. The saltiness enhancement entry with trained panelists [3] (10 ppm, with nose-clip) is reported as “significantly enhanced saltiness”; in the assay with trained panelists [3] (10 ppm, without nose-clip) it was “enhanced saltiness”.

For `O=C(NCCO)c1ccc(O)cc1` [Compound III], the umami enhancement result is recorded as “enhanced umami” in the assay with trained panelists [1] (5 ppm, with nose-clip) and “enhanced umami” with trained panelists [1] (5 ppm, without nose-clip). For the same compound, the saltiness enhancement result in the assay on trained panelists [3] (5 ppm, with nose-clip) is “significantly enhanced saltiness”; in the assay with trained panelists [3] (5 ppm, without nose-clip), “significantly enhanced saltiness”.

On to `O=C(NCCO)c1ccccc1` [Compound II], for which the umami enhancement entry was “enhanced” with trained panelists [1] (5 ppm, with nose-clip) and “enhanced umami” with trained panelists [1] (5 ppm, without nose-clip). For the same compound, the saltiness enhancement result in the assay with trained panelists [3] (5 ppm, with nose-clip) is on record as “significantly enhanced saltiness”; in the assay with trained panelists [3] (5 ppm, without nose-clip), “enhanced saltiness”.
